Results on 27 compounds are retold here after patent US12435080B2, “sGC stimulators” (Tisento Therapeutics Inc., priority 2016, dated 2025).

pEC50: −log10 of the molar value.

One assay deals with T1, sGC enzyme (Homo sapiens, UniProt Q02108+Q02153).
T1 construct: incorporated into these cells detect cGMP formed by the compounds stimulating the sGC enzyme; host or cells: HEK293 cells stably expressing GloSensor 40F cGMP biosensor
T1 sequence (Q02153 1-619): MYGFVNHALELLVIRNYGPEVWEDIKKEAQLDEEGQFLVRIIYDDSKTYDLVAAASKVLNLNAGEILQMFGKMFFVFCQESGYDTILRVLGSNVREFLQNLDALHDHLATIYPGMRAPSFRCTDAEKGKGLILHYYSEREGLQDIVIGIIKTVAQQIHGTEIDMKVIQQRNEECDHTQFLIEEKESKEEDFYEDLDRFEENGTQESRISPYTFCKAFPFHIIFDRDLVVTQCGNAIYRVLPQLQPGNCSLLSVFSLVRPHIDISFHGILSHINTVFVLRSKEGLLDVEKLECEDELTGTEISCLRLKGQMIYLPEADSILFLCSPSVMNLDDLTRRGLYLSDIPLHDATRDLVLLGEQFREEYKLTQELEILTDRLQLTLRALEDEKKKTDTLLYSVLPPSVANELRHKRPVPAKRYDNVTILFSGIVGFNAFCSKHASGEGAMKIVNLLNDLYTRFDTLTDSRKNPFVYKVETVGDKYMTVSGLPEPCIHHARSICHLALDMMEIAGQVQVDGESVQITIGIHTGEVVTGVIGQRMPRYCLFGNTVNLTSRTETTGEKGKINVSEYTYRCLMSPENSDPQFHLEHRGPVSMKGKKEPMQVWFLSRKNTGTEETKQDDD
T1 sequence (Q02108 1-690): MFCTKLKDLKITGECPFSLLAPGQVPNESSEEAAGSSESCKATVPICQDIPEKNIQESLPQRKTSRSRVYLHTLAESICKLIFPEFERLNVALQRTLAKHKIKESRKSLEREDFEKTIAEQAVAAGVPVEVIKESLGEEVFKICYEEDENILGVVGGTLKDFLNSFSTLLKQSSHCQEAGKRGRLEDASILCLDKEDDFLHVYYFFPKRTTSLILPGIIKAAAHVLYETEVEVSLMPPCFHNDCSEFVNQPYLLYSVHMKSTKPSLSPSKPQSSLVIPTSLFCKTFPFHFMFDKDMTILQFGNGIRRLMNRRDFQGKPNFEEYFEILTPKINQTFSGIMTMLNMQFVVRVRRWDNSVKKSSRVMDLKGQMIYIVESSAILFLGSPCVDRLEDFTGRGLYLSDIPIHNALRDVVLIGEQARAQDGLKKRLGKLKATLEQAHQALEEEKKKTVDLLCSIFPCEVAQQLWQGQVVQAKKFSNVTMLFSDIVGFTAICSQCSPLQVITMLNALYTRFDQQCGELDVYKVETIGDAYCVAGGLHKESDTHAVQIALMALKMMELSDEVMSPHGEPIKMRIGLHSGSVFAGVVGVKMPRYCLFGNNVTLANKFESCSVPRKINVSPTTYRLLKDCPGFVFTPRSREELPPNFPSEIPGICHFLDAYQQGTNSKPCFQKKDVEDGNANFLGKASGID
Briefly: cGMP GloSensor cell-based assay, 384-well format. The conditions noted are these: Glo-sensor AbsEC50, HEK293 cells expressing GloSensor 40F cGMP; 10 μM DETA-NONOate; normalized to 30 μM Compound Y; compounds in Table IA. The source says:
Human embryonic kidney cells (HEK293) cells expressing GloSensor™ 40F cGMP (Part No: CS182801, Promega) were used to evaluate the activity of test compounds. The luminescent biosensors (engineered luciferase) that were incorporated into these cells detect cGMP formed by the compounds stimulating the sGC enzyme and emit luminescence.
cGMP GloSensor cells were maintained in Dulbecco's Modification of Eagle's Medium (DMEM) supplemented with fetal bovine serum (FBS, 10% final) and hygromycine (200 ug/ml). […] Cells were incubated overnight at 37° C. in a humidified chamber with 5% CO2. The next day, medium was removed and cells were replaced with 40 ul/well of GloSensor™, 2 mM (Promega Cat No E1291). Cells were treated for 90 minutes at 25° C. to allow the substrate to equilibrate in the cells. […] For endpoint SAR screening, data were collected after 55 min incubation at room temperature.
Data were fit using a 4-parameter fit (log(agonist) vs. response—variable slope) using GraphPad Prism Software v.5. n=2 for all compounds. […] Compounds failing to elicit a minimum response of 50% are reported as >30 μM or ND.
The compound `Fc1ccccc1Cn1nc(-c2ncn[nH]2)c2cccnc21` [Compound I-25] gave a pEC50 of 6.00 to 7.00.

Staying with this assay, now noted: HEK293 cells expressing GloSensor 40F cGMP; 10 μM DETA-NONOate; normalized to 30 μM Compound Y; compounds in Table IA; read-out: Glo-sensor AbsEC50.
Consider `FC(F)(F)c1n[nH]c(-c2nn(CCC(F)(F)C(F)(F)F)c3cc(Cl)ccc23)n1` [Compound I-3, 6-chloro-1-(3,3,4,4,4-pentafluorobutyl)-3-(3-(trifluoromethyl)-1H-1,2,4-triazol-5-yl)-1H-indazole], for which the pEC50 was 6.00 to 7.00. Same read-out and setting: the value for `FC(F)(F)CCn1nc(-c2nc(C(F)(F)F)n[nH]2)c2cccnc21` [Compound I-7, 3-(3-(Trifluoromethyl)-1H-1,2,4-triazol-5-yl)-1-(3,3,3-trifluoropropyl)-1H-pyrazolo[3,4-b]pyridine] was under 6.00; that for `Fc1cccnc1Cn1nc(-c2nc(C(F)(F)F)n[nH]2)c2cccnc21` [Compound I-13, 1-((3-Fluoropyridin-2-yl)methyl)-3-(3-(trifluoromethyl)-1H-1,2,4-triazol-5-yl)-1H-pyrazolo[3,4-b]pyridine] was 6.00 to 7.00; that for `Fc1ccc(F)c(Cn2nc(-c3nc(C(F)(F)F)n[nH]3)c3cccnc32)c1` [Compound I-14, 1-(2,5-Difluorobenzyl)-3-(3-(trifluoromethyl)-1H-1,2,4-triazol-5-yl)-1H-pyrazolo[3,4-b]pyridine] was over 7.00. On the same count and under the same terms, the same measure for `FC(F)(F)c1n[nH]c(-c2nn(Cc3cncnc3)c3cc(Cl)ccc23)n1` [Compound I-16, 6-Chloro-1-(pyrimidin-5-ylmethyl)-3-(3-(trifluoromethyl)-1H-1,2,4-triazol-5-yl)-1H-indazole]: over 7.00; for `FC(F)(F)c1n[nH]c(-c2nn(CC(F)(F)C(F)(F)F)c3ncccc23)n1` [Compound I-19, 1-(2,2,3,3,3-Pentafluoropropyl)-3-(3-(trifluoromethyl)-1H-1,2,4-triazol-5-yl)-1H-pyrazolo[3,4-b]pyridine]: under 6.00; for `Cc1ncc(Cn2nc(-c3nc(C(F)(F)F)n[nH]3)c3ccc(Cl)cc32)cn1` [Compound I-22, 6-Chloro-1-((2-methylpyrimidin-5-yl)methyl)-3-(3-(trifluoromethyl)-1H-1,2,4-triazol-5-yl)-1H-indazole]: over 7.00. Same read-out and setting: the value for `Fc1ccccc1Cn1nc(-c2nc(CC(F)(F)F)n[nH]2)c2cccnc21` [Compound I-26, 1-(2-Fluorobenzyl)-3-(3-(2,2,2-trifluoroethyl)-1H-1,2,4-triazol-5-yl)-1H-pyrazolo[3,4-b]pyridine] was over 7.00. Take `Fc1ccccc1Cn1nc(-c2nc(C(F)(F)F)n[nH]2)c2ccncc21` [Compound I-32]: the pEC50 is 6.00 to 7.00. On the same count and under the same terms, the value for `Fc1ccccc1Cn1nc(-c2nc(C(F)(F)F)n[nH]2)c2ncccc21` [Compound I-35, 1-(2-Fluorobenzyl)-3-(3-(trifluoromethyl)-1H-1,2,4-triazol-5-yl)-1H-pyrazolo[4,3-b]pyridine] was under 6.00; that for `CC(F)(F)c1n[nH]c(-c2nn(Cc3ccccc3F)c3ncccc23)n1` [Compound I-36, 3-(3-(1,1-difluoroethyl)-1H-1,2,4-triazol-5-yl)-1-(2-fluorobenzyl)-1H-pyrazolo[3,4-b]pyridine] was over 7.00. As for `CC(C)(C)c1n[nH]c(-c2nn(Cc3ccccc3F)c3ncccc23)n1` [Compound I-37, 3-(3-(tert-Butyl)-1H-1,2,4-triazol-5-yl)-1-(2-fluorobenzyl)-1H-pyrazolo[3,4-b]pyridine], the pEC50 is over 7.00. For the compound `Cc1ncc(Cn2nc(-c3nc(C(F)(F)F)n[nH]3)c3ncccc32)cn1` [Compound I-38], the pEC50 was under 6.00.

`Fc1ccccc1Cn1nc(-c2nc(-c3ccccc3)n[nH]2)c2cccnc21` [Compound I-39]: the pEC50 was under 6.00. For the compound `NC(=O)c1n[nH]c(-c2nn(Cc3ccccc3F)c3ncccc23)n1` [Compound I-40, 5-(1-(2-fluorobenzyl)-1H-pyrazolo[3,4-b]pyridin-3-yl)-1H-1,2,4-triazole-3-carboxamide], the pEC50 was 6.00 to 7.00.

Turning to `Fc1cccc(F)c1Cn1nc(-c2nc(C(F)(F)F)n[nH]2)c2cccnc21` [Compound I-42], the pEC50 was over 7.00. Still for that read-out and setting: the same measure for `Fc1ccccc1Cn1nc(-c2nc(C(F)(F)F)n[nH]2)c2cnccc21` [Compound I-43, 1-(2-Fluorobenzyl)-3-(3-(trifluoromethyl)-1H-1,2,4-triazol-5-yl)-1H-pyrazolo[4,3-c]pyridine]: under 6.00.

The same assay, now with this note: HEK293 cells expressing GloSensor 40F cGMP; 10 μM DETA-NONOate; normalized to 30 μM Compound Y; compounds in Table IB; read-out: Glo-sensor Abs EC50.
For `Fc1cccn2c(-c3nc(C(F)(F)F)n[nH]3)nc(Cc3cncnc3)c12` [Compound I-15, 8-Fluoro-1-(pyrimidin-5-ylmethyl)-3-(3-(trifluoromethyl)-1H-1,2,4-triazol-5-yl)imidazo[1,5-a]pyridine], the pEC50 is over 7.00. With `FC(F)(F)c1n[nH]c(-c2nc(Cc3cncnc3)c3ncccn23)n1` [Compound I-17], the pEC50 was over 7.00. The same measure, in the same setting: the value for `FC(F)(F)c1n[nH]c(-c2nc(CCC(F)(F)C(F)(F)F)n3ncccc23)n1` [Compound I-18, 7-(3,3,4,4,4-pentafluorobutyl)-5-(3-(trifluoromethyl)-1H-1,2,4-triazol-5-yl)imidazo[1,5-b]pyridazine] was 6.00 to 7.00; that for `Cc1ncc(Cc2nc(-c3nc(C(F)(F)F)n[nH]3)n3cc(F)ccc23)cn1` [Compound I-23, 6-Fluoro-1-((2-methylpyrimidin-5-yl)methyl)-3-(3-(trifluoromethyl)-1H-1,2,4-triazol-5-yl)imidazo[1,5-a]pyridine pyridine] was 6.00 to 7.00; that for `Fc1ccccc1Cc1nc(-c2nc(C(F)(F)F)n[nH]2)n2ncccc12` [Compound I-24, 5-(2-Fluorobenzyl)-7-(3-(trifluoromethyl)-1H-1,2,4-triazol-5-yl)imidazo[1,5-b]pyridazine] was under 6.00. Same read-out and setting: the same measure for `Cc1ncc(Cc2nc(-c3nc(C(F)(F)F)n[nH]3)n3cc(Cl)cc(F)c23)cn1` [Compound I-27, 6-Chloro-8-fluoro-1-((2-methylpyrimidin-5-yl)methyl)-3-(3-(trifluoromethyl)-1H-1,2,4-triazol-5-yl)imidazo[1,5-a]pyridine]: under 6.00; for `Fc1cc(F)c2c(Cc3cncnc3)nc(-c3nc(C(F)(F)F)n[nH]3)n2c1` [Compound I-28, 6,8-Difluoro-1-(pyrimidin-5-ylmethyl)-3-(3-(trifluoromethyl)-1H-1,2,4-triazol-5-yl)imidazo[1,5-a]pyridine]: over 7.00.

Take `Cc1ncc(Cc2nc(-c3nc(C(F)(F)F)n[nH]3)n3ccc(Cl)cc23)cn1` [Compound I-29, 7-Chloro-1-((2-methylpyrimidin-5-yl)methyl)-3-(3-(trifluoromethyl)-1H-1,2,4-triazol-5-yl)imidazo[1,5-a]pyridine]: the pEC50 was 6.00 to 7.00. Still for that read-out and setting: the same measure for `Cc1ncc(Cc2nc(-c3nc(C(F)(F)F)n[nH]3)n3cc(Cl)ccc23)cn1` [Compound I-34, 6-Chloro-1-((2-methylpyrimidin-5-yl)methyl)-3-(3-(trifluoromethyl)-1H-1,2,4-triazol-5-yl)imidazo[1,5-a]pyridine]: under 6.00.
